Here are results for twelve molecules from US8163931B2, “Treatment of CRTH2-mediated diseases and conditions” (Oxagen Limited, priority 2003, dated 2012).

For assay [1], the target named is T1, CRTH2 (Homo sapiens, UniProt Q9Y5Y4).
T1 construct: expressed in transfected cells; host or cells: Chinese Hamster Ovary (CHO) cells, G418-selected (CHO/CRTH2)
T1 sequence (Q9Y5Y4 1-395): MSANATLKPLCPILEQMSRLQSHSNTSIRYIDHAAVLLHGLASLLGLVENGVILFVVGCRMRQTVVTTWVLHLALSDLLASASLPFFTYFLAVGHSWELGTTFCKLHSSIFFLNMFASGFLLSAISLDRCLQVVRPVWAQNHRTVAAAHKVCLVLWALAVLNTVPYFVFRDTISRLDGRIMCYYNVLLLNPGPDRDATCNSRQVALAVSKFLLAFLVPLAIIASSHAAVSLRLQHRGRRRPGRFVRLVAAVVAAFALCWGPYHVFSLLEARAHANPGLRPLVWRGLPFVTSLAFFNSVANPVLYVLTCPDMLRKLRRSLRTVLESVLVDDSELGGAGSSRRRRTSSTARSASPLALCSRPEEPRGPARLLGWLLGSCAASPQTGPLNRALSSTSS
Kind of assay: Calcium mobilisation assay in CHO/CRTH2 cells (PGD2-induced calcium flux). Format: cell-based. The settings on record: for IC50: read-out: IC50, inhibition of PGD2-induced calcium flux. As for the experimental part: (§1) Chinese Hamster Ovary cells were transfected with CRTH2 or DP receptors (CHO/CRTH2 and CHO/DP) and were maintained in culture in a humidified atmosphere at 37° C. (5% CO2) in Minimum Essential Medium (MEM) supplemented with 10% foetal bovine serum, 2 mM glutamine, and 1 mg ml^−1 active G418. The cells were passaged every 2-3 days. For radioligand binding assay, cells were prepared in triple-layer flasks or in 175 cm^2 square flasks (for membrane preparation). For calcium mobilisation assay, cells were grown in a 96 well plate 24 h prior to the assay at a density of 80,000 cells per well.
Cells were seeded onto poly-D-lysine coated 96-well plates at a density of 80,000 cells per well and incubated at 37° C. overnight to allow the cells to adhere. Cells were washed twice with HBSS and incubated for 1 h at 37° C. in 100 μl HBSS and 100 μl calcium-3-dye (Molecular Devices), supplemented with 4 mM probenecid. Changes in fluorescence were monitored over a 50 s time course with agonist addition at 17 s using a Flexstation (Molecular Devices).
In general terms: Calcium flux is commonly read through the fluorescence of an indicator in the cells.

Assay [2] has as its target T1, CRTH2. Kind of assay: [3H]PGD2 radioligand binding on CHO/CRTH2 cell membranes. The settings on record: competition versus [3H]PGD2, CHO/CRTH2 membranes. As for the experimental part:
as §1
(§2) Membranes were prepared either from CHO/CRTH2 and CHO/DP cells, or from platelets (as a source of TP receptors). CHO cells grown to confluency were washed with PBS and detached using a Versene solution (15 ml per flask). When the cells were grown in 175 cm^2 square flask, they were collected by scrapping in PBS. The cell suspensions were centrifuged (1,700 rpm, 10 min, 4° C.) and resuspended in 15 ml of buffer (1×HBSS, supplemented with 10 mM HEPES, pH 7.3). Cell suspensions were then homogenised using an Ultra Turrax at setting 4-6 for 20 s. The homogenate was centrifuged at 1,700 rpm for 10 min and the supernatant was collected and centrifuged at 20,000 rpm for 1 h at 4° C. The resulting pellet was resuspended in buffer and stored at −80° C. in aliquots of 200-500 μl. The protein concentration was determined by the method of Bradford (1976), using bovine serum albumin as standard. The platelets were washed by centrifugation at 600×g for 10 min and resuspended in ice-cold assay buffer (10 mM Tris-HCl, pH 7.4, 5 mM Glucose, 120 mM NaCl, 10 μM indomethacin) and directly centrifuged at 20,000 rpm for 30 min at 4° C. The resulting pellet was treated as described above.
(§3) [^3H]PGD2 (160 Ci/mmol) binding experiments were performed on membranes prepared as described above. Assays were performed in a final volume of 100 μl of buffer (1×HBSS/HEPES 10 mM, pH 7.3). Cell membranes (15 μg). Cell membranes […] were preincubated at room temperature with varying concentration of competing ligand for 15 min. [^3H]PGD2 (mol, final concentration) was then added and the incubation continued for a further one hour at room temperature. The reaction was terminated by the addition of 200 μl ice-cold assay buffer to each well, followed by rapid filtration through Whatman GF/B glass fibre filters using a Unifilter Cell harvester (PerkinElmer Life Sciences) and six washes of 300 μl of ice-cold buffer. The Unifilter plates were dried at room temperature for at least 1 h and the radioactivity retained on the filters was determined on a Beta Trilux counter (PerkinElmer Life Sciences), following addition of 40 μl of Optiphase Hi-Safe 3 (Wallac) liquid scintillation. Non specific binding was defined in the presence of 10 μM unlabelled PGD2. Assays were performed in duplicate.

Assay [3] concerns the target T2, DP receptor (Homo sapiens, UniProt Q13258).
T2 construct: expressed in transfected cells; host or cells: Chinese Hamster Ovary (CHO) cells, G418-selected (CHO/DP)
T2 sequence (Q13258 1-359): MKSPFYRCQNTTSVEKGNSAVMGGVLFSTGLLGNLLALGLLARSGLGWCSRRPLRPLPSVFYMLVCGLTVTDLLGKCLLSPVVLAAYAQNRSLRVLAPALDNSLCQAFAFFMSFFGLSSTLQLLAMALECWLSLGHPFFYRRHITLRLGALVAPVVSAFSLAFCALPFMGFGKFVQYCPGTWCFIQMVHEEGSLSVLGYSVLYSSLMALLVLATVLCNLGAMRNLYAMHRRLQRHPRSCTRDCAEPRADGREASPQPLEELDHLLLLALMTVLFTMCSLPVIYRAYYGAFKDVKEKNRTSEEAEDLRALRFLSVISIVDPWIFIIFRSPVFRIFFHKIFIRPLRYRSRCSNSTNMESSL
Kind of assay: [3H]PGD2 radioligand binding on CHO/DP cell membranes. Conditions: competition versus [3H]PGD2, CHO/DP membranes. As for the experimental part: as §1, §2, §3

The term IC50 denotes the concentration needed to halve the response being measured. What is called Ki is a dissociation constant, usually derived from enzyme kinetics or from competition with a known ligand. Lower therefore signals higher affinity. What is called EC50 is the concentration giving half of the maximal effect.

As to `Cc1c(Cc2ccc3ccccc3c2)c2cc(F)ccc2n1CC(=O)O` [Compound 7, (5-Fluoro-2-methyl-3-naphthalen-2-ylmethyl-indol-1-yl)-acetic acid], in assay [1], the IC50 is 38 ± 16 nM.
With `Cc1c(C(C)c2ccc(S(C)(=O)=O)cc2)c2cc(F)ccc2n1CC(=O)O` (stereo not shown) [Compound 4, {5-Fluoro-3-[1-(4-methanesulfonyl-phenyl)-ethyl]-2-methyl-indol-1-yl}-acetic acid], the figures for the Ki in assay [2] and in assay [3] were 5 ± 4 nM and 30400 ± 9810 nM, respectively. Moreover, the IC50 in assay [1] stood at 55 ± 18 nM.
For the molecule `O=C(O)Cn1cc(Cc2nc3c(F)c(F)cc(F)c3s2)c2ccccc21` [Compound 20, [3-(4,5,7-Trifluoro-benzothiazol-2-ylmethyl)-indol-1-yl]-acetic acid, reference compound], the Ki came to 886 ± 248 nM in assay [2] and 3960 nM in assay [3]. Further, the IC50 in assay [1] amounted to 885 ± 96 nM.
`Cc1c(Cc2nc3ccccc3s2)c2cc(F)ccc2n1CC(=O)O` [Compound 13, (3-Benzothiazol-2-ylmethyl-5-fluoro-2-methyl-indol-1-yl)-acetic acid]: affinity in assay [2] was put at a Ki of 6 ± 1 nM.
For `Cc1c(Cc2ccc3ccccc3n2)c2cc(F)ccc2n1CC(=O)O` [Compound 6, (5-Fluoro-2-methyl-3-quinolin-2-ylmethyl-indol-1-yl)-acetic acid], the Ki in assay [3] was 17900 ± 7290 nM.
Consider `COc1ccc(Cc2c(C)n(CC(=O)O)c3ccc(F)cc23)cc1` [Compound 10, [5-Fluoro-3-(4-methoxy-benzyl)-2-methyl-indol-1-yl]-acetic acid], for which the IC50 in assay [1] is 47 ± 8 nM.
`CCCCC[C@H](O)/C=C/[C@H]1C(=O)C[C@H](O)[C@@H]1C/C=C\CCCC(=O)O` [PGD2, prostaglandin D2, reference compound]: the EC50 in assay [1] (agonist, n=3, read-out: EC50, increase in intracellular Ca2+ mobilisation) is 2.4 ± 0.5 nM.
Take `Cc1c(Cc2ccc(Cl)cc2)c2cc(F)ccc2n1CC(=O)O` [Compound 12, [3-(4-Chloro-benzyl)-5-fluoro-2-methyl-indol-1-yl]-acetic acid]: the Ki came out at 11 ± 2 nM in assay [2] and 12200 ± 2250 nM in assay [3]. For the same molecule, the IC50 in assay [1] worked out at 108 ± 29 nM.
As for `Cc1c(Cc2ccc3cccc(O)c3n2)c2cc(F)ccc2n1CC(=O)O` [Compound 8, [5-Fluoro-3-(8-hydroxy-quinolin-2-ylmethyl)-2-methyl-indol-1-yl]-acetic acid], the results for the inhibition constant (Ki) in assay [2] and in assay [3] were 6 ± 4 nM and 7710 ± 1780 nM, respectively. Moreover, the IC50 in assay [1] was found to be 11 ± 6 nM.
As for `Cc1c(Cc2ccc3cc(F)ccc3n2)c2cc(F)ccc2n1CC(=O)O` [Compound 18, [5-Fluoro-3-(6-fluoro-quinolin-2-ylmethyl)-2-methyl-indol-1-yl]-acetic acid], the Ki is 1.3 ± 0.6 nM in assay [2] and 7740 ± 1440 nM in assay [3]. Also, the IC50 in assay [1] was found to be 10 ± 5 nM.
For `Cc1c(C(C)c2nc3ccccc3s2)c2cc(F)ccc2n1CC(=O)O` (racemic) [Compound 19, (±)-3-(1-Benzothiazol-2-yl-ethyl)-5-fluoro-2-methyl-indol-1-yl]-acetic acid], in assay [1], the IC50 was 34 ± 7 nM.
Consider `Cc1c(Cc2ccc(S(C)(=O)=O)cc2)c2cc(F)ccc2n1CC(=O)O` [Compound 17, [5-Fluoro-3-(4-methanesulfonyl-benzyl)-2-methyl-indol-1-yl]-acetic acid], for which the IC50 in assay [1] worked out at 64 ± 5 nM.
